We go through 31 compounds from US6448273B1, “Orally active iron (III) chelators” (BTG International Limited, priority 1997, dated 2002).

Molecules are shown by their SMILES. Structures can show the parent of a compound that is named as a salt. Where two headings read alike, the source gives them in different places.

A short description of data set [1]: Distribution coefficient DpH7.4 (Kpart), octanol/MOPS pH 7.4. The format is physicochemical. The source says:
The requirements for orally active chelators are set out in Table 4 of Hider et al as (i) good absorption from tile gastrointestinal tract, (ii) efficient liver extraction, (iii) poor entry into peripheral cells such as thymus, muscle, heart and bone marrow and (iv) poor ability to penetrate the blood-brain barrier and maternal/placental barriers.

The next data set is described as follows: pKa of the ligand. The format is physicochemical.
Data set [2] can be described thus: Iron (III) complex stability constant Logβ3. Type of data set: physicochemical.
Data set [3] is described as follows: pM for Iron III (affinity for iron as Fe III). The note with it: negative log ferric ion concentration; total iron 10^-6 M, ligand 10^-5 M. The format is physicochemical. An excerpt:
The present inventors now have provided a group of 3-hydroxypyridin-4-one iron chelators having improved properties as compared to the prior art as assessed against the criteria set out above. […] Preferred compounds have efficiency of iron mobilisation of in excess of 52% when given orally to rats. […]

The nature of data set [4]: Iron III Mobilisation Efficacy Assay in Rat: Oral Administration. The format is in vivo. Particulars: for Efficacy: iron mobilisation less control. Here is the method: Control rats were given an equivalent volume of water. The rats were placed in individual metabolic cages and their urine and faeces collected. One hour after the administration they were allowed access to food, with no restriction on water being made throughout the study period. The investigation was terminated 24 hours after the ^59Fe ferritin administration when rats were sacrificed and their livers and gastrointestinal tracts, including all contents including faeces, were removed for gamma counting.

[5] abbreviates: method marked (p), first pKa, read-out: pKa, first value (p).
The mark [6] stands for this setting: method marked (p), second pKa, read-out: pKa, second value (p).
[7] abbreviates: method marked (s), first pKa, read-out: pKa, first value (s).
Where [8] appears, read: method marked (s), second pKa, read-out: pKa, second value (s).

The compound `CCn1ccc(=O)c(O)c1CO` (as salt: hydrochloride) [CP359, 1-Ethyl-2-hydroxymethyl-3-hydroxy-pyridin-4(1H)-one hydrochloride] came in with a melting point of 168 to 169 °C.
On the same count and under the same terms, in the case of `Cc1cc(=O)c(O)c(CO)n1C` (as salt: hydrochloride) [CP360, 1,6-Dimethyl-2-hydroxymethyl-3-hydroxy-pyridin-4(1H)-one hydrochloride] it was 140 to 143 °C; in that of `Cc1cc(=O)c(O)c(C(C)O)n1C` (stereo not shown) (as salt: hydrochloride) [CP361, 1,6-Dimethyl-2-(1-hydroxyethyl)-3-hydroxy-pyridin-4(1H)-one hydrochloride], 208 to 212 °C; in that of `COC(C)c1c(O)c(=O)cc(C)n1C` (stereo not shown) (as salt: hydrochloride) [CP363, 1,6-Dimethyl-2-(1-methoxyethyl)-3-hydroxy-pyridin-4(1H)-one hydrochloride], 205 to 207 °C.
On to `Cn1ccc(=O)c(O)c1CO` (as salt: hydrochloride) [CP364, 1-Methyl-2-hydroxymethyl-3-hydroxy-pyridin-4(1H)-one hydrochloride], for which the melting point is 157 to 159 °C.
The same measure, in the same setting: in the case of `O=C(OCCCn1ccc(=O)c(O)c1CO)c1ccccc1` (as salt: hydrochloride) [CP367, 1-[(3-Benzoyloxy)propyl]-2-hydroxymethyl-3-hydroxy-pyridin-4(1H)-one hydrochloride] it was 142 to 143 °C; in that of `CCn1c(C)cc(=O)c(O)c1CO` (as salt: hydrochloride) [CP369, 1-Ethyl-2-hydroxymethyl-3-hydroxy-6-methyl-pyridin-4(1H)-one hydrochloride], 160 to 162 °C.
Still for that read-out and setting: in the case of `CCn1c(C)cc(=O)c(O)c1COC` (as salt: hydrochloride) [CP370, 1-Ethyl-2-methoxymethyl-3-hydroxy-6-methyl-pyridin-4(1H)-one hydrochloride] it was 174 to 176 °C.
Take `CC(O)c1c(O)c(=O)ccn1CCCO` (stereo not shown) (as salt: hydrochloride) [CP372, 1-(3-hydroxypropyl)-2-(1-hydroxyethyl)-3-hydroxy-pyridin-4(1H)-one hydrochloride]: the melting point fell in the range of 117 to 120 °C.
In turn, `CCOC(C)c1c(O)c(=O)cc(C)n1C` (stereo not shown) (as salt: hydrochloride) [CP373, 1,6-Dimethyl-2-(1-ethoxyethyl)-3-hydroxy-pyridin-4(1H)-one hydrochloride] yielded a melting point of 195 to 199 °C.
Consider `CCC(O)c1c(O)c(=O)cc(C)n1C` (stereo not shown) (as salt: hydrochloride) [CP374, 1,6-Dimethyl-2-(1-hydroxypropyl)-3-hydroxy-pyridin-4(1H)-one hydrochloride], for which the melting point lay within 221 to 223 °C.
On the same count and under the same terms, for `CCC(OC)c1c(O)c(=O)cc(C)n1C` (stereo not shown) (as salt: hydrochloride) [CP375, 1,6-Dimethyl-2-(1-methoxypropyl)-3-hydroxy-pyridin-4(1H)-one hydrochloride] the value was 225 to 227 °C.
`COCc1cc(=O)c(O)c(COC)n1C` (as salt: hydrochloride) [CP388, 2,6-Dimethoxymethyl-1-methyl-3-hydroxypyridin-4(1H)-one hydrochloride] showed a melting point of 161 to 163 °C.
Consider `CNC(=O)c1c(O)c(=O)cc(C)n1C` (as salt: hydrochloride) [CP502, 1,6-Dimethyl-3-hydroxy-4(1H)-pyridinone-2-carboxy-(N-methyl)-amide hydrochloride], for which the melting point was 238 °C (dec.).
Same read-out and setting: for `COCCNC(=O)c1c(O)c(=O)cc(C)n1C` (as salt: hydrochloride) [CP506, 1,6-Dimethyl-3-hydroxy-4(1H)-pyridinone-2-carboxy-(N-2′-methoxyethyl)-amide hydrochloride] the value was 204 to 206 °C.
Same read-out and setting: in the case of `Cc1cc(=O)c(O)c(C(=O)NCCO)n1C` (as salt: hydrochloride) [CP507, 1,6-Dimethyl-3-hydroxy-4(1H)-pyridinone-2-carboxy-(N-2′-hydroxyethyl)-amide hydrochloride] it was 178 to 181 °C; in that of `Cc1cc(=O)c(O)c(C(=O)N(C)C)n1C` (as salt: hydrochloride) [CP508, 1,6-Dimethyl-3-hydroxy-4(1H)-pyridinone-2-carboxy-(N,N-dimethyl)-amide hydrochloride], 219 °C (dec.).
As to `CCn1ccc(=O)c(O)c1CO` [CP359, 1-Ethyl-2-hydroxymethyl-3-hydroxy-pyridin-4(1H)-one hydrochloride], the “DpH 7.4” value in data set [1] is on record as 0.14. Moreover, the “pKa, first value (s)” value in the data set “pKa of the ligand” (method marked (s), first pKa) was found to be 2.88. Moreover, in the data set “pKa of the ligand” (method marked (s), second pKa), the “pKa, second value (s)” value was found to be 9.05. In addition, the Logβ3 in data set [2] amounted to 35.25. For the same compound, the “pMpH 7.45” value in data set [3] was determined as 20.96.
Turning to `Cc1cc(=O)c(O)c(CO)n1C` [CP360, 1,6-Dimethyl-2-hydroxymethyl-3-hydroxy-pyridin-4(1H)-one hydrochloride], in data set [1], the “DpH 7.4” value is listed as 0.098. Moreover, the “pKa, first value (s)” value in the data set “pKa of the ligand” (method marked (s), first pKa) is recorded as 3.37. Besides, in “pKa of the ligand” (method marked (s), second pKa), the “pKa, second value (s)” value came out at 9.42. This compound also yielded a Logβ3 in data set [2] of 35.51. Also, the “pMpH 7.45” value in data set [3] is given as 20.43.
The corresponding values for `Cc1cc(=O)c(O)c(C(C)O)n1C` (stereo not shown) [CP361, 1,6-Dimethyl-2-(1-hydroxyethyl)-3-hydroxy-pyridin-4(1H)-one hydrochloride] are 0.25, 3.55, 8.97, 3.52 and 21.47.
`COCc1c(O)c(=O)cc(C)n1C` [CP362]: in data set [1], the “DpH 7.4” value is recorded as 0.42.
For the compound `COC(C)c1c(O)c(=O)cc(C)n1C` (stereo not shown) [CP363, 1,6-Dimethyl-2-(1-methoxyethyl)-3-hydroxy-pyridin-4(1H)-one hydrochloride], the “DpH 7.4” value in data set [1] is recorded as 1.09. Further, the pKa stood at 3.2 in the data set “pKa of the ligand” (setting [5]), 9.44 in “pKa of the ligand” (setting [6]), 3.22 in “pKa of the ligand” (setting [7]) and 9.43 in “pKa of the ligand” (setting [8]). Also, the “Iron Mobilisation” value was 40.7 ± 2.4% in data set [4] (150 μmol/kg), 66.9 ± 8.7% in data set [4] (300 μmol/kg) and 73.5 ± 8.1% in data set [4] (450 μmol/kg). For the same compound, the values for the Efficacy in data set [4] (150 μmol/kg), in data set [4] (300 μmol/kg) and in data set [4] (450 μmol/kg) were 36.8%, 63.0% and 69.6%, respectively.
Regarding `Cn1ccc(=O)c(O)c1CO` [CP364, 1-Methyl-2-hydroxymethyl-3-hydroxy-pyridin-4(1H)-one hydrochloride], the “DpH 7.4” value in data set [1] came out at 0.048. The pKa came out at 3.13 in “pKa of the ligand” (setting [5]), 9.22 in the data set “pKa of the ligand” (setting [6]) and 9.12 in the data set “pKa of the ligand” (setting [8]). In the data set “pKa of the ligand” (method marked (s), first pKa), the “pKa, first value (s)” value came to 2.93. Also, the Logβ3 in data set [2] came out at 35.3. Also, the “pMpH 7.45” value in data set [3] was determined as 20.75.
Consider `CCn1ccc(=O)c(O)c1C(C)O` (stereo not shown) [CP365, 1-Ethyl-2-(1-hydroxyethyl)-3-hydroxy-pyridin-4(1H)-one hydrochloride], for which the “DpH 7.4” value in data set [1] amounted to 0.27. Also, the “pKa, first value (s)” value in the data set “pKa of the ligand” (method marked (s), first pKa) turned out to be 3.11. Also, the “pKa, second value (s)” value in the data set “pKa of the ligand” (method marked (s), second pKa) is reported as 8.74. For the same compound, in data set [2], the Logβ3 is 34.8. Besides, the “pMpH 7.45” value in data set [3] is given as 21.3.
Turning to `O=C(OCCCn1ccc(=O)c(O)c1CO)c1ccccc1` [CP367, 1-[(3-Benzoyloxy)propyl]-2-hydroxymethyl-3-hydroxy-pyridin-4(1H)-one hydrochloride], in data set [1], the “DpH 7.4” value stood at 5.61. Besides, the pKa in the data set “pKa of the ligand” (setting [5]) is 2.6; in the data set “pKa of the ligand” (setting [6]) it was 9.07; in the data set “pKa of the ligand” (setting [7]) it was 2.7; in “pKa of the ligand” (setting [8]), 8.95.
For the compound `CCn1c(C)cc(=O)c(O)c1CO` [CP369, 1-Ethyl-2-hydroxymethyl-3-hydroxy-6-methyl-pyridin-4(1H)-one hydrochloride], the “DpH 7.4” value in data set [1] is given as 0.223. The “pKa, first value (s)” value in the data set “pKa of the ligand” (method marked (s), first pKa) was determined as 3.28. The “pKa, second value (s)” value in “pKa of the ligand” (method marked (s), second pKa) is 9.38. In addition, the Logβ3 in data set [2] was found to be 35.6. Also, the “pMpH 7.45” value in data set [3] is recorded as 20.35.
Take `CCn1c(C)cc(=O)c(O)c1COC` [CP370, 1-Ethyl-2-methoxymethyl-3-hydroxy-6-methyl-pyridin-4(1H)-one hydrochloride]: the “DpH 7.4” value in data set [1] is recorded as 1.08.
As for `CC(O)c1c(O)c(=O)ccn1CCCO` (stereo not shown) [CP372, 1-(3-hydroxypropyl)-2-(1-hydroxyethyl)-3-hydroxy-pyridin-4(1H)-one hydrochloride], the “DpH 7.4” value in data set [1] turned out to be 0.075. The “pKa, first value (s)” value in “pKa of the ligand” (method marked (s), first pKa) was determined as 2.96. Besides, the “pKa, second value (s)” value in “pKa of the ligand” (method marked (s), second pKa) is on record as 8.69. In data set [2], the Logβ3 came to 34.67. The “pMpH 7.45” value in data set [3] amounted to 21.48.
With `CCOC(C)c1c(O)c(=O)cc(C)n1C` (stereo not shown) [CP373, 1,6-Dimethyl-2-(1-ethoxyethyl)-3-hydroxy-pyridin-4(1H)-one hydrochloride], the “DpH 7.4” value in data set [1] was 3.32.
As for `CCC(OC)c1c(O)c(=O)cc(C)n1C` (stereo not shown) [CP375, 1,6-Dimethyl-2-(1-methoxypropyl)-3-hydroxy-pyridin-4(1H)-one hydrochloride], in data set [1], the “DpH 7.4” value is on record as 3.85. The “Iron Mobilisation” value in data set [4] (150 μmol/kg) amounted to 40.2 ± 8.5%; in data set [4] (450 μmol/kg) it was 72.0 ± 8.2%. Also, the Efficacy in data set [4] (150 μmol/kg) is 36.3%; in data set [4] (450 μmol/kg), 68.1%.
As for `Cn1c(CO)cc(=O)c(O)c1CO` [CP387], in data set [1], the “DpH 7.4” value was 0.04.

As a reminder, the melting point is the temperature, or range, at which the solid turns liquid. Broadly, the pKa is the pH at which an ionisable group is half protonated.
